This is an account of results in US20230323358A1, “COMPOSITION AND USE OF siRNAs AGAINST VEGFR2 AND TGF-BETA1 IN COMBINATION THERAPY FOR CANCER” (Sirnaomics, Inc., priority 2021, published 2023).

What is called EC50 is the concentration at which the effect is half-maximal.

Data set [1] has as its system TGF-β1. Put plainly: EC50 of TGF-β1 siRNA candidates before and after modification, knockdown in cells. The data set is classed as cell-based, human. The procedure:
DLD-1, RKO, U87-MG and PANC-1 cells were seeded into 24-well cell plates (1 × 10^5/well), and then siRNAs (21mer or negative control) were transfected with commercial transfection reagent (lipo2000). The siRNA transfection concentration was 100 nM. Untreated cells were set as a blank control. Total RNA was extracted from cells 24 h after transfection. Reverse transcription was performed using the kit to obtain cDNA according to the manufacturer’s instructions. Relative levels of target gene TGF- β1 mRNA expression were determined by real-time PCR, normalized to the housekeeping gene β-actin. Gene knockdown effectiveness was expressed as a percentage of the blank control. […] Therefore, TF1-21-hm3# and TF1-21-hm6# were selected as candidate sequences, and these two sequences were modified (see Table 4 for modified sequences).
The EC50 of candidate sequences before and after modification in different cells (U87-MG, DLD-1, SK-Hep-1, BxPC3, A549, HUCCT, PANC-1 and RKO) were compared. U87-MG, DLD-1, SK-Hep-1, BxPC3, A549, HUCCT, PANC-1 and RKO cells were seeded in 24-well cell plates (1 × 10^5/well) and transfected with multiple concentration gradients in different cells for siRNA candidates (modified or unmodified), use the same procedure as for primary screening. Finally, the data were plotted using the software GraphPad Prism8 and EC50 values were calculated.

Data set [2] concerns TGF-β1. Described as above. Format: cell-based. The following applies: 293T cells, homo, 24h, 24well (second TGF-β1 table).
The test system of data set [3] is VEGFR2. Put plainly: EC50 of VEGFR2 siRNA candidates before and after modification, knockdown in cells. Format: cell-based, human. The following applies: for EC50: 24 h, 24well; for knockdown effect of the modified sequence compared with unmodified: PANC-1 and MDA-MB-231 cells. As for the experimental part:
MDA-MB-231 and U87 cells were seeded in 24-well cell plates (1 × 10^5/well), and then siRNAs (21mer or 25mer or negative control) were transfected with commercial transfection reagent (lipo2000), and the siRNA transfection concentration was 100 nM. Meanwhile, untreated cells were set as blank control. Total RNA was extracted from cells 24 h after transfection. Reverse transcription was performed using the kit to obtain cDNA according to the manufacturer’s instructions. Relative levels of target gene VEGFR2 mRNA expression were determined by real-time PCR, normalized to the housekeeping gene β-actin. Gene knockdown effectiveness was expressed as a percentage of the blank control. […] VEGFR2-21-h1#, VEGFR2-21-h2#, VEGFR2-21-h5#, VEGFR2-21-h7#, VEGFR2-21-hm17#, VEGFR2-21-hm18#, VEGFR2-25-h3#, and VEGFR2- 25-h4# were selected and modified as indicated in Table 3 (SEQ ID Nos. 109-124).
The EC50 of candidate sequences before and after modification in different cells (MDA-MB-231, U87-MG and PANC-1) were compared. MDA-MB-231, PANC-1 and U87-MG cells were seeded in 24-well cell plates (1 × 10^5/well), and siRNA candidates (modified or unmodified) were transfected with multiple concentration gradients in different cells. Use the same procedure as the primary screen. Finally, the data were plotted using the software GraphPad Prism8 and EC50 values were calculated.

Where [4] appears, read: A549 cells, homo, 24 h, 24well (Table 6), read-out: EC50 (nM, 24 h, 24well) A549.
[5] abbreviates: A549 cells, homo, 24h, 24well (second TGF-β1 table), read-out: EC50 (24h, nM, 24well) A549.
[6] abbreviates: BxPC3 cells, homo, 24 h, 24well (Table 6), read-out: EC50 (nM, 24 h, 24well) BxPC3.
Where [7] appears, read: DLD-1 cells, homo, 24 h, 24well (Table 6), read-out: EC50 (nM, 24 h, 24well) DLD-1.
Where [8] appears, read: PANC-1 cells, homo, 24 h, 24well (Table 6), read-out: EC50 (nM, 24 h, 24well) PANC-1.
Setting [9] is: RKO cells, homo, 24 h, 24well (Table 6), read-out: EC50 (nM, 24 h, 24well) RKO.
Where [10] appears, read: RKO cells, homo, 24h, 24well (second TGF-β1 table), read-out: EC50 (24h, nM, 24well) RKO.
Where [11] appears, read: SK-Hep1 cells, homo, 24 h, 24well (Table 6), read-out: EC50 (nM, 24 h, 24well) SK-Hep1.
Where [12] appears, read: U87MG cells, homo, 24 h, 24well (Table 6), read-out: EC50 (nM, 24 h, 24well) U87MG.
[13] abbreviates: DLD-1 cells, Homo, 24h, 24well (second TGF-β1 table), read-out: EC50 (24h, nM, 24well) DLD-1.
The mark [14] stands for this setting: Hucct cells, homo, 24h, 24well (second TGF-β1 table), read-out: EC50 (24h, nM, 24well) Hucct.
[15] abbreviates: PANC-1 cells, homo, 24h, 24well (second TGF-β1 table), read-out: EC50 (24h, nM, 24well) PANC -1.
Setting [16] is: U87MG cells, homo, 24h, 24well (second TGF-β1 table), read-out: EC50 (24h, nM, 24well) U87M G.
[17] abbreviates: MD-MB-231 cells, read-out: EC50 (nM, 24 h, 24well) Breast cancer MD-MB-231.
Where [18] appears, read: PANC-1 cells, read-out: EC50 (nM, 24 h, 24well) Pancreatic cancer PANC-1.
[19] abbreviates: U87-MG cells, read-out: EC50 (nM, 24 h, 24well) Brain cancer U87-MG.

Like-named read-outs stand apart in the source and are kept apart here. Oligonucleotides are written 5' to 3', each unit as a sugar letter and its base; * is a phosphorothioate linkage, no mark a phosphodiester; rarer units and linkages stand in square brackets, end groups in braces. Plain capitals give the bases only. {P} = phosphate; d = 2'-deoxy (DNA); m = 2'-O-methyl; r = 2'-OH (RNA); f = 2'-fluoro

Consider “TF1-21-hm3#mod: Modified (2′F, 2′OME, phosphorylation) siRNA targeting TGF-β1; sense SEQ ID 147, antisense SEQ ID 151 (sense mAmAmCmUmAmUfUfGfCmUmUmCmAmGmCmUmCmCmAdTdT; antisense {P}-mUfGmGmAmGmCmUmGmAmAmGmCmAfAmUmAmGmUmUdTdT)”, for which the EC50 is 0.04 nM in data set [1] (setting [4]); 0.04 nM in data set [1] (setting [5]); 0.17 nM in data set [1] (setting [6]); 0.02 nM in data set [1] (setting [7]); 0.02 nM in data set [1] (setting [8]); 0.08 nM in data set [1] (setting [9]). In addition, the EC50 in data set [1] (setting [10]) was 0.08 nM; in data set [1] (setting [11]), 2.64 nM; in data set [1] (setting [12]), 1.48 nM.

Regarding “TF1-21-hm7#: siRNA targeting TGF-β1 mRNA; sense SEQ ID 27, antisense SEQ ID 37 (sense GGCAGCUGUACAUUGACUUTT; antisense AAGUCAAUGUACAGCUGCCTT; sugars from the 5' end r19 d2, backbone not given here)”, the EC50 in data set [1] (setting [5]) stood at 0.1 nM; in data set [1] (setting [13]) it was 0.7 nM; in data set [1] (setting [14]), 0.031 nM; in data set [1] (setting [15]), 12 nM; in data set [1] (setting [10]), 0.1 nM; in data set [1] (setting [16]) it was 0.6 nM.

Substance “TF1-20190711-1#mod: Modified siRNA targeting TGF-β1; sense SEQ ID 149, antisense SEQ ID 153 (sense GCAGAGUACACACAGCAUATT; antisense UAUGCUGUGUGUACUCUGCTT; sense: sugars from the 5' end m6 f3 m10 d2, backbone not given here; antisense: sugars from the 5' end mfmmmmmmmmmmmfmmmmmdd, 5' {P}, backbone not given here)” gave an EC50 in data set [2] of 0.25 nM.

For “VEGFR2-21-h7#mod: Modified (2′F, 2′OME, phosphorylation) siRNA targeting VEGFR2; sense SEQ ID 138, antisense SEQ ID 146 (sense mGmCmUmGmAmCfAfUfGmUmAmCmGmGmUmCmUmAmUdTdT; antisense {P}-mAfUmAmGmAmCmCmGmUmAmCmAmUfGmUmCmAmGmCdTdT)”, the results for the EC50 in data set [3] (setting [17]), in data set [3] (setting [18]) and in data set [3] (setting [19]) were 51.4 nM, 384 nM and 170 nM, respectively.

As for “VEGFR2-21-hm17#mod: Modified (2′F, 2′OME, phosphorylation) siRNA targeting VEGFR2; sense SEQ ID 135, antisense SEQ ID 143 (sense mGmGmAmCmUmGfGfCfUmUmUmGmGmCmCmCmAmAmUdTdT; antisense {P}-mAfUmUmGmGmGmCmCmAmAmAmGmCfCmAmGmUmCmCdTdT)”, the EC50 in data set [3] (setting [17]) turned out to be 0.32 nM; in data set [3] (setting [18]), 0.25 nM; in data set [3] (setting [19]), 312 nM.

In the case of “VEGFR2-21-hm17#: siRNA targeting VEGFR2 mRNA; sense SEQ ID 76, antisense SEQ ID 119 (sense GGACUGGCUUUGGCCCAAUTT; antisense AUUGGGCCAAAGCCAGUCCTT; sugars from the 5' end r19 d2, backbone not given here)”, the EC50 in data set [3] (setting [17]) was 1.04 nM; in data set [3] (setting [18]), 2.09 nM; in data set [3] (setting [19]), 16.6 nM. Moreover, in data set [3], the “knockdown effect of the modified sequence compared with unmodified” value was “better than that of unmodified”.

With “VEGFR2-25-h3#mod: Modified (2′F, 2′OME, phosphorylation) siRNA targeting VEGFR2; sense SEQ ID 133, antisense SEQ ID 141 (sense mGmAmCmCmAmAmCmAmUmGmGmAfGfUfCmGmUmGmUmAmCmAmUmUmA; antisense {P}-mUfAmAmUmGmUmAmCmAmCmGmAmCfUmCmCmAmUmGmUmUmGmGmUmC)”, the EC50 in data set [3] (setting [17]) came to 1.65 nM; in data set [3] (setting [18]), 1.76 nM; in data set [3] (setting [19]) it was 1090 nM.

Turning to “VEGFR2-21-h5#: siRNA targeting VEGFR2 mRNA; sense SEQ ID 64, antisense SEQ ID 107 (sense GCAUCAGCAUAAGAAACUUTT; antisense AAGUUUCUUAUGCUGAUGCTT; sugars from the 5' end r19 d2, backbone not given here)”, the EC50 in data set [3] (setting [17]) was found to be 0.4 nM; in data set [3] (setting [18]) it was 0.51 nM; in data set [3] (setting [19]) it was 25.5 nM. Further, the “knockdown effect of the modified sequence compared with unmodified” value in data set [3] is listed as “better than that of unmodified”.

As to “TF1-20190711-5#: siRNA targeting TGF-β1 mRNA; sense SEQ ID 9, antisense SEQ ID 10 (sense GAGUACACACAGCAUAUAUTT; antisense AUAUAUGCUGUGUGUACUCTT; sugars from the 5' end r19 d2, backbone not given here)”, the EC50 in data set [1] (SK-Hep 1 cells, homo, 24h, 24well (second TGF-β1 table), read-out: EC50 (24h, nM, 24well) SK-Hep 1) was 9.8 nM.

For the substance “VEGFR2-25-h 4#mod: Modified (2′F, 2′OME, phosphorylation) siRNA targeting VEGFR2; sense SEQ ID 134, antisense SEQ ID 142 (sense mCmCmCmUmUmGmAmGmUmCmCmAfAfUfCmAmCmAmCmAmAmUmUmAmA; antisense {P}-mUfUmAmAmUmUmGmUmGmUmGmAmUfUmGmGmAmCmUmCmAmAmGmGmG)”, the EC50 in data set [3] (setting [17]) was determined as 0.21 nM; in data set [3] (setting [18]), 0.35 nM; in data set [3] (setting [19]) it was 34.6 nM.

As to “TF1-21-hm3#: siRNA targeting TGF-β1 mRNA; sense SEQ ID 23, antisense SEQ ID 33 (sense AACUAUUGCUUCAGCUCCATT; antisense UGGAGCUGAAGCAAUAGUUTT; sugars from the 5' end r19 d2, backbone not given here)”, the EC50 is 1.36 nM in data set [1] (setting [4]); 1.4 nM in data set [1] (setting [5]); 0.25 nM in data set [1] (setting [6]); 11.9 nM in data set [1] (BxPC 3 cells, homo, 24h, 24well (second TGF-β1 table), read-out: EC50 (24h, nM, 24well) BxPC 3); 0.2 nM in data set [1] (setting [13]); 0.15 nM in data set [1] (setting [7]). Further, the EC50 worked out at 0.03 nM in data set [1] (Hucct cells, homo, 24 h, 24well (Table 6), read-out: EC50 (nM, 24 h, 24well) Hucct); 0.029 nM in data set [1] (setting [14]); 6.65 nM in data set [1] (setting [8]); 6.6 nM in data set [1] (setting [15]); 0.1 nM in data set [1] (setting [9]); 0.1 nM in data set [1] (setting [10]). The EC50 in data set [1] (setting [11]) was found to be 3.16 nM; in data set [1] (setting [12]), 0.29 nM; in data set [1] (setting [16]), 0.3 nM.

For “VEGFR2-21-h5#mod: Modified (2′F, 2′OME, phosphorylation) siRNA targeting VEGFR2; sense SEQ ID 137, antisense SEQ ID 145 (sense mGmCmAmUmCmAfGfCfAmUmAmAmGmAmAmAmCmUmUdTdT; antisense {P}-mAfAmGmUmUmUmCmUmUmAmUmGmCfUmGmAmUmGmCdTdT)”, the EC50 in data set [3] (setting [17]) is 0.01 nM; in data set [3] (setting [18]), 0.22 nM; in data set [3] (setting [19]) it was 10.4 nM.
